Where “and” joins values, the source holds several entries; their conditions need not be identical. Equal values may be shown once.
Tests used:
[1] = tested on: patients with low urinary tract syndrome (LUTS) and mild to moderate hypertension; assay: Clinical study, Amlodipine 5 mg vs Terazosin 2 mg for 4 weeks: IPSS, urinary flow rate, blood pressure; type: in vivo, human; set-up: key to BOO (obstructive symptoms score) / OAB (irritative symptoms score): IPSS sub-scores in points (symptom items of IPSS); settings: for Percentage of improvement at Week 4: BOO / Percentage of improvement at Week 4: DBP / Percentage of improvement at Week 4: IPSS / Percentage of improvement at Week 4: OAB / Percentage of improvement at Week 4: Qave / Percentage of improvement at Week 4: Qmax / Percentage of improvement at Week 4: SBP: Week 4 vs Week 0
Excerpt: 1) Male, 50-75 years old. […] 3) International Prostate Symptom Score (IPSS)≧8 points
Storage, reservation and delivery of drugs were in accordance with Standard Operation Procedure (SOP).
Obstructive symptoms score includes hesitancy of micturition, reduced or interrupted urinary stream and sensation of incomplete bladder emptying, which mainly reflect BOO. Irritative symptoms score refers to urinary urgency and frequency, and an increase in night micturition, reflecting OAB symptoms. In this study, a total score of IPSS is considered as primary index. Sub-scores on BOO and OAB were also considered.
All data, doubly entered using Epi-info 3.0 and presented as mean±standard deviation (SD), were analyzed using SAS 8.0. A paired t-test was employed to compare pre- and post-treatment scores, and a multiple regression analysis was further performed to adjust for important covariates. Difference was considered significant at P<0.05.

[2] = tested on: rats with BPH; assay: Urodynamic parameters and urine volumes in castrated, testosterone propionate-treated SD rats with BPH; type: in vivo, rat (male SD)
Protocol: Afterwards, the bilateral testicles of the rats were resected under an aseptic condition. Then the rats received an intramuscular injection of penicillin at 20000 U/kg/d for 3 days, and 1 week later a subcutaneous injection of testosterone propionate (dissolved in olive oil) at 0.5 mg/pec, once daily for 21 consecutive days.
(§1) In the treatment groups, the rats were orally administered by infusion at 1 ml/100 g body weight once daily for 14 consecutive days after 7-day injection with testosterone propionate. In the blank and model groups, the rats were orally perfused with isovolumetric physiological saline.
(§2) The rats were anaesthetized by a peritoneal injection of 20% ethyl carbamate at a dose of 1000 mg/kg. The rat bladder was exposed by cutting a longitudinal incision on the upper of pubic arch. Piercing the top of bladder made a little hole, where a catheter with cannulas was inserted. The outside cannula (Φ 1.2 mm) with a pressreceptor was linked to PC-Lab multi-lead physiological recording system. The inside cannula (Φ 0.61 mm) was connected to an injection pump with constant infusion speed (2 ml/h). After last administration, the urodynamic parameters, single urine volume, and residual urine volume in rats were respectively collected.
(§3) Data were presented as mean±SD. One way-ANOVA was employed for group comparison.

[3] = tested on: spontaneous hypertensive rats (SHR) with prostate hyperplasia; assay: Urodynamic parameters and urine volumes in spontaneous hypertensive rats (SHR) with prostate hyperplasia; type: in vivo, rat (SHR); settings: Amlodipine 0.5 mg/kg (A3) oral once daily 14 days
Protocol: as §1, §2, §3

[4] = Amlodipine 5 mg or Terazosin 2 mg oral for 4 weeks
[5] = Week 0 (before treatment), groups Amlodipine 5 mg (N=90), Terazosin 2 mg (N=62)
[6] = Week 4, Amlodipine 5 mg or Terazosin 2 mg oral for 4 consecutive weeks
[7] = Amlodipine 0.25 mg/kg (A1) oral once daily 14 days
[8] = Amlodipine 0.5 mg/kg (A2) oral once daily 14 days
[9] = multiple regression adjusted for age and BMI, Amlodipine 5 mg vs Terazosin 2 mg, 4 weeks
[10] = multiple regression, crude, Amlodipine 5 mg vs Terazosin 2 mg, 4 weeks

In the case of COc1cc2nc(N3CCN(C(=O)C4CCCO4)CC3)nc(N)c2cc1OC (stereo not drawn) [Terazosin], the “indices improved between week 0 and week 4” value [1, 4] is reported as “remarkable improvement in IPSS, BOO-related score, maximum urinary flow rate (Qmax) and Qave, and a decrease in systolic blood pressure”, the “indices without improvement between week 0 and week 4” value [1, 4] is reported as “no improvement in OAB-related score and diastolic blood pressure” and the “BOO (obstructive symptoms score)” value [1, 5] is reported as 6.6 ± 3.5. For the same molecule, the DBP [1, 5] was 86.6 ± 9.0 mmHg, the IPSS [1, 5] was 13.2 ± 4.4 and the “OAB (irritative symptoms score)” value [1, 5] was 6.6 ± 3.0. For the same molecule, the Qave [1, 5] was 8.9 ± 3.9 mL/s, the Qmax [1, 5] was 17.7 ± 7.0 mL/s and the SBP [1, 5] was 152.8 ± 15.9 mmHg. The “BOO (obstructive symptoms score)” value [1, 6] was 4.2 ± 4.3, the DBP [1, 6] was 84.5 ± 11.4 mmHg and the IPSS [1, 6] was 9.4 ± 5.9. For the same molecule, the “OAB (irritative symptoms score)” value [1, 6] was 5.3 ± 2.8, the Qave [1, 6] was 9.9 ± 4.2 mL/s and the Qmax [1, 6] was 19.4 ± 7.4 mL/s. For the same molecule, the SBP [1, 6] was 147.0 ± 17.8 mmHg, the “Percentage of improvement at Week 4: BOO” value [1, 4] was 32.2 ± 63.5 % and the “Percentage of improvement at Week 4: DBP” value [1, 4] was 2.3 ± 10.1% and 2.31 ± 10.12%. For the same molecule, the “Percentage of improvement at Week 4: IPSS” value [1, 4] was 28.1 ± 40.5 % and 28.15 ± 40.5%, the “Percentage of improvement at Week 4: OAB” value [1, 4] was 7.7 ± 54.8% and the “Percentage of improvement at Week 4: Qave” value [1, 4] was 13.8 ± 25.9 % and 13.77 ± 25.86%. The “Percentage of improvement at Week 4: Qmax” value [1, 4] was 12.8 ± 30.5 % and 12.8 ± 30.47% and the “Percentage of improvement at Week 4: SBP” value [1, 4] was 3.3 ± 11.9 % and 3.28 ± 11.92%.

With CCOC(=O)C1=C(COCCN)NC(C)=C(C(=O)OC)C1c1ccccc1Cl (stereo not drawn) [Amlodipine] the Interval of micturition [2, 7] was 734.8 ± 210.5 s, the “Peak value of micturition pressure” value [2, 7] was 37.5 ± 7.0 mmHg and the “Point pressure of micturition” value [2, 7] was 33.4 ± 3.3 mmHg. For the same molecule, the “Qave. (average urinary flow rate)” value [2, 7] was 3.7 ± 1.2 mL/s, the Time of micturition [2, 7] was 8.9 ± 1.6 s and the Interval of micturition [2, 8] was 762.3 ± 274.8 s. For the same molecule, the “Peak value of micturition pressure” value [2, 8] was 30.5 ± 5.5 mmHg, the “Point pressure of micturition” value [2, 8] was 30.6 ± 3.9 mmHg and the “Qave. (average urinary flow rate)” value [2, 8] was 4.0 ± 1.9 mL/s. The Time of micturition [2, 8] was 8.4 ± 1.8 s, the Interval of micturition [3] was 786.0 ± 237.5 s and the “Peak value of micturition pressure” value [3] was 31.8 ± 7.3 mmHg. The “Point pressure of micturition” value [3] was 31.4 ± 3.6 mmHg, the “Qave. (average urinary flow rate)” value [3] was 4.4 ± 1.6 mL/s and the Time of micturition [3] was 8.0 ± 1.1 s. For the same molecule, the “BOO (obstructive symptoms score)” value [1, 5] was 9.1 ± 4.2, the DBP [1, 5] was 88.6 ± 8.9 mmHg and the “OAB (irritative symptoms score)” value [1, 5] was 7.3 ± 3.3. The Qave [1, 5] was 8.9 ± 4.1 mL/s, the Qmax [1, 5] was 17.3 ± 6.7 mL/s and the SBP [1, 5] was 155.4 ± 16.1 mmHg. The “BOO (obstructive symptoms score)” value [1, 6] was 5.8 ± 4.6, the DBP [1, 6] was 82.0 ± 8.9 mmHg and the IPSS [1, 6] was 11.1 ± 6.7. The “OAB (irritative symptoms score)” value [1, 6] was 5.5 ± 3.2, the Qave [1, 6] was 8.8 ± 3.8 mL/s and the Qmax [1, 6] was 17.7 ± 6.9 mL/s. For the same molecule, the SBP [1, 6] was 140.9 ± 15.4 mmHg, the “Percentage of improvement at Week 4: BOO” value [1, 4] was 33.3 ± 53.2 % and the “Percentage of improvement at Week 4: DBP” value [1, 4] was 7.2 ± 7.1 % and 7.22 ± 7.09%. For the same molecule, the “Percentage of improvement at Week 4: IPSS” value [1, 4] was 30.2 ± 39.7 % and 30.17 ± 39.7%, the “Percentage of improvement at Week 4: OAB” value [1, 4] was 17.3 ± 49.3 % and the “Percentage of improvement at Week 4: Qave” value [1, 4] was 5.0 ± 35.2% and 5.04 ± 35.25%. For the same molecule, the “Percentage of improvement at Week 4: Qmax” value [1, 4] was 7.1 ± 41.1% and 7.09 ± 41.10%, the “Percentage of improvement at Week 4: SBP” value [1, 4] was 8.9 ± 9.6 % and 8.89 ± 9.61% and the “Percentage of improvement, (2)-(1) Amlodipine minus Terazosin, β Adjust: BOO” value [1, 9] was 0.3. For the same molecule, the “Percentage of improvement, (2)-(1) Amlodipine minus Terazosin, β Adjust: DBF” value [1, 9] was 5.1, the “Percentage of improvement, (2)-(1) Amlodipine minus Terazosin, β Adjust: IPSS” value [1, 9] was 1.4 and the “Percentage of improvement, (2)-(1) Amlodipine minus Terazosin, β Adjust: OAB” value [1, 9] was 8.6. The “Percentage of improvement, (2)-(1) Amlodipine minus Terazosin, β Adjust: Qave” value [1, 9] was −8.4, the “Percentage of improvement, (2)-(1) Amlodipine minus Terazosin, β Adjust: Qmax” value [1, 9] was −5.0 and the “Percentage of improvement, (2)-(1) Amlodipine minus Terazosin, β Adjust: SBP” value [1, 9] was 5.7. The “Percentage of improvement, (2)-(1) Amlodipine minus Terazosin, β Crude: BOO” value [1, 10] was 1.1, the “Percentage of improvement, (2)-(1) Amlodipine minus Terazosin, β Crude: DBF” value [1, 10] was 4.9 and the “Percentage of improvement, (2)-(1) Amlodipine minus Terazosin, β Crude: IPSS” value [1, 10] was 2.0. For the same molecule, the “Percentage of improvement, (2)-(1) Amlodipine minus Terazosin, β Crude: OAB” value [1, 10] was 9.6, the “Percentage of improvement, (2)-(1) Amlodipine minus Terazosin, β Crude: Qave” value [1, 10] was −8.7 and the “Percentage of improvement, (2)-(1) Amlodipine minus Terazosin, β Crude: Qmax” value [1, 10] was −5.7. For the same molecule, the “Percentage of improvement, (2)-(1) Amlodipine minus Terazosin, β Crude: SBP” value [1, 10] was 5.6.

From patent US20100048644A1 (BEIJING HUAANFO BIOMEDICAL RESEARCH CENTRE INC., priority 2006, published 2010)
